According to patent US20240114902A1, “COMPOSITIONS AND METHODS FOR DETERRING OVIPOSITION BY FRUIT FLIES” (The United States of America, as represented by The …, priority 2022, published 2024):

Tests used:
Assay type in all cases: in vivo
[1] = tested on: Bactrocera dorsalis (OFF); assay: OFF two-choice cage oviposition bioassay on guava juice-infused agar; design: key to Activity (OFF oviposition group): Negative: “OFF negative” (i.e., oviposition reduced); Neutral: “OFF neutral” (i.e., no effect on oviposition); Positive: “OFF positive” (i.e., oviposition increased); settings: for effect on OFF oviposition vs control agar / OFF oviposition deterrence at lower dose: individual compound; for effect on OFF oviposition vs control agar / OFF oviposition reduction vs control agar / OFF oviposition increase vs control agar: 20 mg/agar; for OFF oviposition reduction vs control agar: 3 days; for Activity (OFF oviposition group): individual CFA component; for OFF oviposition deterrence at lower dose: 2 mg dose; for OFF oviposition increase vs control agar: ethanol control
Protocol: Evaluation of oviposition deterrence of CFA: OFF oviposition bioassays were conducted using laboratory two-choice cage experiments with guava juice-infused agar as an oviposition substrate. The agar plates were prepared by pouring 30 mL of boiled agar mixture [1000 mL distilled water, 500 mL guava juice (Deans Foods, El Paso, Texas, USA), 10 g agar, 0.6 g methylparaben, 6.7 mL 95% ethanol, and 3 mL acetic acid] into a 30 mL deli plastic cup to gel. The agar was then covered with a lid to avoid desiccation. The two-choice oviposition bioassay was conducted in screened cages using 20 mated OFF females per cage (12-18 day-old; Jang E B et al., 1997, “Attraction of female oriental fruit fly, Bactrocera dorsalis, to volatile semiochemicals from leaves and extracts of a non-host plant, Panax (Polyscias guilfoylei) in laboratory and olfactometer assays,” J. Chem. Ecol. 23:1389-1401) over 3 days. Each cage was provided with a ball of water-saturated cotton, sugar, and protein hydrolysate in separate 30 mL deli cups and two guava juice agar plates-one treated with CFA diluted in hexane and the other treated with the hexane control. The agar plates were surface-treated either with 200 μL of hexane or 200 μL of CFA in one of 4 doses tested (20, 2, 0.2, and 0.02 mg/200 μL of hexane), placed into a fume hood for 10 minutes prior to use in bioassays, and positioned upside-down (i.e., treated side down) on the center of the outside top of the screened cage 17 cm apart from each other (i.e., one each of control and CFA treated), allowing female flies to oviposit on guava juice agar from the bottom through the cage screen. After three days, OFF eggs in the guava agar were gently separated from the agar in water and the number of eggs were individually counted (up to 100 eggs) or estimated volumetrically at 1 mL OFF eggs=20,000 eggs (Stephanie Gayle personal communication). The experiment was replicated six times per treatment. Determination of bioactive oviposition deterrent components from CFA: A series of bioassays was conducted to identify key deterrent components of CFA for OFF using the same two-choice bioassay design described above. […] Ethanol was used as control and for preparing dilutions of C16:0 and C18:0. Hexane was used as control and for dilutions of the other six compounds tested. Based on the outcome of these bioassays, the eight free fatty acid components were assigned to “OFF negative” (i.e., oviposition reduced), “OFF neutral” (i.e., no effect on oviposition), and “OFF positive” (i.e., oviposition increased) compound groups. Using these groupings, four different blends were formulated (indicated in Table 1), composed at the equivalent ratios and concentrations of each component found in CFA (Zhu J J et al., 2018, supra), to determine key bioactive CFA components in terms of oviposition deterrence on OFF. The approach involved testing the bioactivity of the OFF negative-component blend (4c blend) for oviposition deterrence at three different doses (2, 0.2, and 0.02 mg CFA equivalent/agar), first comparing with hexane control, then with CFA at respective equivalent doses. As the 4c blend was not as effective as CFA, a “OFF negative+OFF neutral” component blend (6c blend) was then formulated, and its effect compared with CFA at 2 and 0.2 mg CFA equivalent/agar. Two subtraction blends with one of the two OFF neutral components removed from the 6c blend (5c-i and 5c-ii blends) were formulated and compared with the 6c blend at 2 and 0.2 mg CFA equivalent/agar. The experiment was replicated four to six times per treatment.

Zeugodacus cucurbitae = assay: Z. cucurbitae two-choice oviposition bioassay on pumpkin juice-infused agar; design: key to Behavioral activity (Z. cucurbitae oviposition group): Negative: “negative” (i.e., oviposition reduced); Neutral: “neutral” (i.e., no effect on oviposition); Positive: “positive” (i.e., oviposition increased); settings: for Behavioral activity (Z. cucurbitae oviposition group): individual CFFA component; for Z. cucurbitae oviposition reduction vs control agar: individual compound; for Z. cucurbitae oviposition increase vs ethanol control agar: 24 hours
Protocol: Oviposition bioassays were conducted with mated female flies, using pumpkin juice-infused agar as an oviposition substrate. A small petri dish (60×15 mm) filled with 10 mL of 1% agar mixed in pumpkin juice was used as an oviposition substrate. The agar plates were surface-treated either with 200 μL of ethanol or 200 μL of CFFA in one of 4 doses tested (20, 2, 0.2, and 0.02 mg/200 μL of ethanol), placed into a fume hood for 10 minutes for solvent evaporation prior to use in bioassays, and positioned upside-down (i.e. treated side down) on top of the 30×30×30 cm (W×L×H) screened cage 17 cm apart from each other (i.e. one each of control and CFFA treated), allowing 20 female flies (14 to 18 day-old) to oviposit on pumpkin juice agar from the bottom through the cage screen for 24 hours. Each cage was provided with a ball of water-saturated cotton, sugar, and protein hydrolysate in separate 30 mL deli cups and two oviposition substrates-one treated with CFFA diluted in ethanol and the other treated with the ethanol control. After 24 hours, Z. cucurbitae eggs in the pumpkin agar were gently separated from the agar in water and the number of eggs were individually counted. The experiment was replicated five times per treatment. CFFA was not an effective oviposition deterrent for Z. cucurbitae which is contrary to our previous work on B. dorsalis (Roh et al., 2023a). […] CFFA components were categorized into three groups “negative” (i.e., oviposition reduced), “neutral” (i.e., no effect on oviposition), and “positive” (i.e., oviposition increased) based on bioassay outcome. Using these categories, further formulations were made to determine key bioactive CFFA components in terms of oviposition deterrence on Z. cucurbitae at the equivalent ratios and concentrations of each component found in CFFA (Zhu et al. 2018). The approach involved testing the bioactivity of the negative-component blend (4c blend) for oviposition deterrence at three different doses (2, 0.2, and 0.02 mg CFFA equivalent/agar), compared with ethanol control. Further, neutral compound is added to the negative blend i.e., ‘negative+neutral’ component blend (5c blend) to identify key compounds for oviposition deterrence. The experiment was replicated five times per treatment.

Drosophila suzukii (SWD) = assay: SWD laboratory two-choice oviposition bioassay on raspberries; design: key to Behavioral activity (SWD oviposition group): Negative: “SWD negative” compounds (i.e., SWD oviposition was reduced); Neutral: “SWD neutral” compounds (i.e., no effect on oviposition); settings: two-choice; for Behavioral activity (SWD oviposition group): individual CFA component; for effect on SWD oviposition vs control: individual compound, 20 mg dose
Protocol: Laboratory choice test 1 Oviposition bioassays were conducted at USDA-ARS in Hilo, Hawaii using a laboratory two-choice cage experimental set-up with organic raspberries purchased from a local grocery as an oviposition substrate. For all laboratory assays listed below, the receptacles of the raspberries were stuffed with cotton to prevent flies from ovipositing on the interior of the fruit as described previously in Cha D H et al. (2021, supra). The two-choice oviposition bioassay was conducted over 24 hours in screened cages (30 cm W×30 cm L×30 cm H; BugDorm-2120 Insect tent; shop.bugdorm.com) with 30 female and 10 male SWD (7-8 days old) released per cage. Each cage was provided with cotton moistened with water in a 20 mL deli cup and two 30 mL deli cups; one with two raspberries treated with CFA diluted in hexane and the other with two raspberries treated with hexane only. Each raspberry was surface-treated either with 200 μL of hexane or 200 μL of CFA in one of three doses (20, 2, or 0.2 mg CFA/200 μL hexane), placed into a fume hood for 10 minutes or until used in the bioassay. The deli cups with the treated berries were positioned in the center of the floor of the screened cage, 17 cm apart from each other. Female flies were allowed to oviposit on the surface of raspberries for 24 hours. At the conclusion of the bioassay, each 30 mL deli cup containing two raspberries was moved into a 600 mL deli cup with a mesh cap, held for 8 days (22.1±1.9° C., 71.7±3.1% RH, 16:8 L:D), when the number of larvae and pupae were counted. The experiment was replicated four times per treatment. Laboratory choice test 2 A series of bioassays were conducted in Hilo, Hawaii to identify key bioactive deterrent components of CFA for SWD using the same two-choice bioassay described above. […] Due to solubility differences, ethanol was used as control and for dilution of C16:0 and C18:0, while hexane was used as control and for dilution of the other six compounds tested. Based on the outcome of these bioassays, the eight free fatty acid components of CFA were grouped into two groups; “SWD negative” compounds (i.e., SWD oviposition was reduced) and “SWD neutral” compounds (i.e., no effect on oviposition), and tested whether the blend of “SWD negative” compounds had the same oviposition deterrence as the CFA at their equivalent concentrations as in CFA (see Table 2). The oviposition deterrence of the blend of “SWD negative” compounds was first compared to hexane at three different doses (20, 2 and 0.2 mg CFA equivalent/raspberry) and subsequently compared to CFA at 2 mg equivalent dose.

Bactrocera dorsalis = assay: B. dorsalis spatial deterrence, two-choice traps baited with guava juice; settings: tested individually
Protocol: In addition to CFA, a series of odd-numbered carbon fatty acids (C9:0 to C17:0) and fatty acid methyl esters were evaluated for the spatial deterrence to B. dorsalis that results in oviposition reduction. Table 3 below lists the fatty acid methyl esters tested for spatial repellency for Bactrocera dorsalis. […] FIG. 16A, FIG. 16C, FIG. 16E, FIG. 16G, FIG. 16I, FIG. 16K, FIG. 16M, FIG. 16O, FIG. 16Q, and FIG. 16S show the mean numbers (±SEM) of mated female B. dorsalis flies captured, and FIG. 16B, FIG. 16D, FIG. 16F, FIG. 16H, FIG. 16J, FIG. 16L, FIG. 16N, FIG. 16P, FIG. 16R, and FIG. 16T show the number of B. dorsalis eggs oviposited in traps baited with guava juice (control) and with guava juice plus one of the coconut fatty acid methyl ester compounds in two-choice bioassays. For each test, different letter on the bar indicate a significant difference by Tukey-Kramer tests at P<0.05, n=4.

CCCCCCCCCCC(=O)O [C11:0, Undecylic acid]
effect on OFF oviposition vs control agar [1]: significantly reduced

CCCCC/C=C\C/C=C\CCCCCCCC(=O)O [C18:2, linoleic acid]
effect on Z. cucurbitae oviposition (Zeugodacus cucurbitae; 2 mg dose): either lost oviposition deterrence or increased oviposition | Behavioral activity (Z. cucurbitae oviposition group) (Zeugodacus cucurbitae): Negative | Z. cucurbitae oviposition reduction vs control agar (Zeugodacus cucurbitae; 20 mg dose): 96.4% | OFF oviposition reduction vs control agar [1]: 99% | Activity (OFF oviposition group) [1]: Negative | OFF oviposition deterrence at lower dose [1]: maintained OFF oviposition deterrence | Behavioral activity (SWD oviposition group) (Drosophila suzukii (SWD)): Neutral | effect on SWD oviposition vs control (Drosophila suzukii (SWD)): did not increase or decrease SWD oviposition

CCCCCCCCCCCC(=O)O [C12:0, lauric acid]
Z. cucurbitae oviposition increase vs ethanol control agar (Zeugodacus cucurbitae; 20 mg dose): 86.4% | Behavioral activity (Z. cucurbitae oviposition group) (Zeugodacus cucurbitae): Positive | Activity (OFF oviposition group) [1]: Neutral | effect on OFF oviposition vs control agar [1]: did not affect OFF oviposition | Behavioral activity (SWD oviposition group) (Drosophila suzukii (SWD)): Neutral | effect on SWD oviposition vs control (Drosophila suzukii (SWD)): did not increase or decrease SWD oviposition

CCCCCCCC/C=C\CCCCCCCC(=O)O [C18:1, oleic acid]
effect on Z. cucurbitae oviposition (Zeugodacus cucurbitae; 2 mg dose): either lost oviposition deterrence or increased oviposition | Behavioral activity (Z. cucurbitae oviposition group) (Zeugodacus cucurbitae): Negative | Z. cucurbitae oviposition reduction vs control agar (Zeugodacus cucurbitae; 20 mg dose): 98.1% | OFF oviposition reduction vs control agar [1]: 100% | Activity (OFF oviposition group) [1]: Negative | OFF oviposition deterrence at lower dose [1]: maintained OFF oviposition deterrence | Behavioral activity (SWD oviposition group) (Drosophila suzukii (SWD)): Neutral | effect on SWD oviposition vs control (Drosophila suzukii (SWD)): did not increase or decrease SWD oviposition

CCCCCCCCCCCCCCCC(=O)O [C16:0, palmitic acid]
Z. cucurbitae oviposition increase vs ethanol control agar (Zeugodacus cucurbitae; 20 mg dose): 67.3% | Behavioral activity (Z. cucurbitae oviposition group) (Zeugodacus cucurbitae): Positive | OFF oviposition increase vs control agar [1]: 60% | Activity (OFF oviposition group) [1]: Positive | Behavioral activity (SWD oviposition group) (Drosophila suzukii (SWD)): Neutral | effect on SWD oviposition vs control (Drosophila suzukii (SWD)): did not increase or decrease SWD oviposition

CCCCCCCCCCCCCCC(=O)OC [C15:0 ME, Methyl pentadecanoate]
effect on female B. dorsalis attraction and oviposition to host fruit odors (Bactrocera dorsalis): significantly reduced

CCCCCCCCCCCCCCCCCC(=O)O [C18:0, stearic acid]
effect on Z. cucurbitae oviposition (Zeugodacus cucurbitae; 20 mg dose): did not affect oviposition | Behavioral activity (Z. cucurbitae oviposition group) (Zeugodacus cucurbitae): Neutral | OFF oviposition increase vs control agar [1]: 29% | Activity (OFF oviposition group) [1]: Positive | Behavioral activity (SWD oviposition group) (Drosophila suzukii (SWD)): Neutral | effect on SWD oviposition vs control (Drosophila suzukii (SWD)): did not increase or decrease SWD oviposition

CCCCCCCCCCCCCC(=O)O [C14:0, myristic acid]
Z. cucurbitae oviposition increase vs ethanol control agar (Zeugodacus cucurbitae; 20 mg dose): 77.7% | Behavioral activity (Z. cucurbitae oviposition group) (Zeugodacus cucurbitae): Positive | Activity (OFF oviposition group) [1]: Neutral | effect on OFF oviposition vs control agar [1]: did not affect OFF oviposition | Behavioral activity (SWD oviposition group) (Drosophila suzukii (SWD)): Neutral | effect on SWD oviposition vs control (Drosophila suzukii (SWD)): did not increase or decrease SWD oviposition
